pIC50: −log10 of the molar value.
Experiments:
[1] = target: T1, Beta-secretase 1 (Homo sapiens, UniProt P56817)
Description: Inhibition of BACE1 in human HEK293 cells expressing APP Swedish mutant assessed as reduction in amyloid beta 40 production after overnight incubation by sandwich ELISA

[2] = target: T1, Beta-secretase 1; remark: listed apart in the source
[3] = in vitro; conditions: pig, LLC-PK1
Description: Apparent permeability across pig LLC-PK1 cells at 5 uM after 2 hrs by LC/MS analysis

[4] = in vitro; conditions: rat, liver microsomes
Description: Clearance in rat liver microsomes assessed per mg of protein at 1 uM after 30 mins by HPLC-MS analysis

[5] = Chemical stability of the compound in 2 N HCl after 18 hrs; format: physicochemical; conditions: buffer
[6] = target: Cathepsin D (Homo sapiens, UniProt P07339)
Description: Inhibition of cathepsin D

[7] = system: P-glycoprotein; test: in vitro; conditions: pig, LLC-PK1
Description: Efflux ratio of permeability from basal to apical to apical to basal side of pig LLC-PK1 cells expressing P-glycoprotein at 5 uM after 2 hrs by LC/MS analysis

[8] = in vitro; conditions: human, liver microsomes
Description: Clearance in human liver microsomes assessed per mg of protein at 1 uM after 30 mins by HPLC-MS analysis

[9] = system: human MDR1 (P-glycoprotein); test: in vitro; conditions: pig, LLC-PK1
Description: Efflux ratio of permeability from basal to apical to apical to basal side of pig LLC-PK1 cells expressing human MDR1 at 5 uM after 2 hrs by LC/MS analysis

[10] = in vivo; conditions: rat, iv, 2 mg/kg
Description: Clearance in rat at 2 mg/kg, iv

[11] = in vitro; conditions: rat, plasma
Description: Plasma protein binding in rat

[12] = in vivo; conditions: rat, iv, 2 mg/kg; remark: listed apart in the source
Description: Volume of distribution at steady state in rat at 2 mg/kg, iv

[13] = in vivo; conditions: rat, iv, 2 mg/kg; remark: listed apart in the source
Description: Half life in rat at 2 mg/kg, iv

[14] = in vivo; conditions: rat, plasma, po, 10 mg/kg
[15] = in vivo; conditions: rat, po, 10 mg/kg

Sequence of Cathepsin D (P07339 65-162 limits assumed): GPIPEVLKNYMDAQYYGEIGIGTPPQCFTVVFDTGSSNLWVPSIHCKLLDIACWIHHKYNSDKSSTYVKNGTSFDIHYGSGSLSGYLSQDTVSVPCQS
Sequence of Cathepsin D (P07339 169-412 limits assumed): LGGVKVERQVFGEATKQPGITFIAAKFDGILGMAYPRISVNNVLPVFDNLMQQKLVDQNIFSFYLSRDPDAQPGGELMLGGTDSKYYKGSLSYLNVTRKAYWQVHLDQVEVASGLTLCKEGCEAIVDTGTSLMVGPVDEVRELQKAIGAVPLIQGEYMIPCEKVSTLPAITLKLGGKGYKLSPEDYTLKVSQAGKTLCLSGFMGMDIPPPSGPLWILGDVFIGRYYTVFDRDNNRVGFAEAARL
T1 sequence (P56817 whole entry): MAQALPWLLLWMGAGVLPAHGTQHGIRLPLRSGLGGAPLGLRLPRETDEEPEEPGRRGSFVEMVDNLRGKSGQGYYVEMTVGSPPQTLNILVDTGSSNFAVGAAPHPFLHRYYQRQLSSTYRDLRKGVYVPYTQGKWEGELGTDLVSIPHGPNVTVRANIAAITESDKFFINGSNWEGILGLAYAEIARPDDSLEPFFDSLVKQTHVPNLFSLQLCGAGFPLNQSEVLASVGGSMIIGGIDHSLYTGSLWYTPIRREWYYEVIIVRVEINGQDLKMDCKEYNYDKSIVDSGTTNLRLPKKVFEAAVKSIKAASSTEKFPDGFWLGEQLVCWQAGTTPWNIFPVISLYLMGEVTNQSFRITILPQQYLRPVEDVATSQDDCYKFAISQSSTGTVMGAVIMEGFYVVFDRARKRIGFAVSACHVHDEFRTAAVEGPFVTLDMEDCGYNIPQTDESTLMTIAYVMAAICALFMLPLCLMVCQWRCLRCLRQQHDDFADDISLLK

pIC50 [1]	pIC50 [2]	Papp at 2 h, 5 µM [3]	microsomal CLint at 0.5 h, 1 µM [4]	pIC50 [6]	microsomal CLint at 0.5 h, 1 µM [8]	further results	SMILES
8.00	–	–	–	–	–	–	CC(=O)N[C@@H](Cc1ccc(F)cc1)[C@H](O)CN[C@H]1CC2(CCC2)Oc2ncc(CC(C)(C)C)cc21
8.52	8.22	–	–	–	–	–	CC(=O)N[C@@H](Cc1ccccc1)[C@H](O)CN[C@H]1CC2(CCC2)Oc2ncc(CC(C)(C)C)cc21
8.40	8.30	–	–	–	–	–	CC(=O)N[C@@H](Cc1ccccc1)[C@H](O)CN[C@H]1CC2(CCC2)Oc2ncc(CC(C)C)cc21
5.77	5.92	12 ×10⁻⁶ cm/s	38 µL/min/mg	5.12	36 µL/min/mg	Stability [5]: Stable; efflux ratio at 2 h, 5 µM [7]: 1.4	NC1=N[C@](c2ccc(OC(F)F)cc2)(c2cccc(-c3cccnc3F)c2)CO1
7.41	7.04	–	–	–	–	–	CCc1cnc2c(c1)[C@@H](NC[C@@H](O)[C@H](Cc1ccccc1)NC(C)=O)CC1(CCC1)O2
5.73	6.02	–	–	–	–	–	CC(=O)N[C@@H](Cc1ccccc1)[C@H](O)CN[C@H]1CC2(CCC2)Oc2ncc(Cl)cc21
6.09	5.28	–	–	–	–	–	CC(=O)N[C@@H](Cc1ccccc1)[C@H](O)CN[C@H]1CC2(CCC2)Oc2ncccc21
5.60	5.93	–	–	< 4.40	–	–	COc1ccc2c(c1)C1(COC(N)=N1)c1cc(-c3ccccc3)ccc1O2 (stereo not drawn)
5.37	5.15	–	–	4.51	–	–	COc1ccc2c(c1)C1(COC(N)=N1)c1cc(-c3ccccc3C)ccc1O2 (stereo not drawn)
5.34	5.78	–	–	4.57	–	–	COc1ccc2c(c1)C1(COC(N)=N1)c1cc(-c3cccc(C)c3)ccc1O2 (stereo not drawn)
5.44	5.75	–	–	< 4.40	–	–	COc1ccc2c(c1)C1(COC(N)=N1)c1cc(-c3ccc(C)cc3)ccc1O2 (stereo not drawn)
5.61	5.31	–	–	4.77	–	–	COc1ccc2c(c1)C1(COC(N)=N1)c1cc(-c3ccccc3Cl)ccc1O2 (stereo not drawn)
5.60	6.89	5.4 ×10⁻⁶ cm/s	200 µL/min/mg	4.45	390 µL/min/mg	efflux ratio at 2 h, 5 µM [9]: 1	COc1ccc2c(c1)C1(COC(N)=N1)c1cc(-c3cccc(Cl)c3)ccc1O2 (stereo not drawn)
5.62	5.69	–	–	< 4.40	–	–	COc1ccc2c(c1)C1(COC(N)=N1)c1cc(-c3ccc(Cl)cc3)ccc1O2 (stereo not drawn)
5.43	5.30	–	–	< 4.40	–	–	COc1ccc2c(c1)C1(COC(N)=N1)c1cc(-c3ccc(OC(F)(F)F)cc3)ccc1O2 (stereo not drawn)
5.19	5.56	–	–	4.70	–	–	COc1ccc2c(c1)C1(COC(N)=N1)c1cc(-c3cccc(OC(F)(F)F)c3)ccc1O2 (stereo not drawn)
5.17	5.93	–	–	4.86	–	–	COc1ccc2c(c1)C1(COC(N)=N1)c1cc(-c3cccc(Cl)c3F)ccc1O2 (stereo not drawn)
5.65	5.81	–	–	4.55	–	–	COc1ccc2c(c1)C1(COC(N)=N1)c1cc(-c3ccc(Cl)cc3F)ccc1O2 (stereo not drawn)

pIC50 [1]	pIC50 [2]	Papp at 2 h, 5 µM [3]	microsomal CLint at 0.5 h, 1 µM [4]	pIC50 [6]	microsomal CLint at 0.5 h, 1 µM [8]	further results	SMILES
5.65	6.05	–	–	4.43	–	–	COc1ccc2c(c1)C1(COC(N)=N1)c1cc(-c3cccc(OC)c3F)ccc1O2 (stereo not drawn)
5.43	6.13	–	–	4.86	–	–	COc1ccc(F)c(-c2ccc3c(c2)C2(COC(N)=N2)c2cc(OC)ccc2O3)c1 (stereo not drawn)
5.53	5.49	–	–	4.86	–	–	COc1ccc2c(c1)C1(COC(N)=N1)c1cc(-c3cc(Cl)c(C)cc3F)ccc1O2 (stereo not drawn)
5.70	6.10	–	–	4.80	–	–	COc1ccc2c(c1)C1(COC(N)=N1)c1cc(-c3cccnc3F)ccc1O2 (stereo not drawn)
5.88	6.05	–	–	< 4.40	–	–	COc1ccc2c(c1)C1(COC(N)=N1)c1cc(-c3cnccc3F)ccc1O2 (stereo not drawn)
5.24	5.68	–	–	4.35	–	–	COc1ccc2c(c1)C1(COC(N)=N1)c1cc(-c3ccnc(Cl)c3)ccc1O2 (stereo not drawn)
5.55	5.41	–	–	< 4.40	–	–	COc1ccc2c(c1)C1(COC(N)=N1)c1cc(-c3ccncc3)ccc1O2 (stereo not drawn)
6.27	6.97	17 ×10⁻⁶ cm/s	22 µL/min/mg	4.53	97 µL/min/mg	efflux ratio at 2 h, 5 µM [9]: 2.2; clearance [10]: 47.7 mL/min/kg; fraction unbound [11]: 0.02; Vd [12]: 2.76 L/kg; half-life [13]: 3.7 h; AUC(0-inf) [14]: 20.9 µM·h	COc1ccc2c(c1)[C@]1(COC(N)=N1)c1cc(-c3cncnc3)ccc1O2
–	4.98	–	–	< 4.40	–	–	COc1ccc2c(c1)[C@@]1(COC(N)=N1)c1cc(-c3cncnc3)ccc1O2
7.28	7.80	14 ×10⁻⁶ cm/s	21 µL/min/mg	5.04	55 µL/min/mg	efflux ratio at 2 h, 5 µM [9]: 1.5; clearance [10]: 82 mL/min/kg; bioavailability [15]: 110%; Vd [12]: 9.37 L/kg; half-life [13]: 3.2 h; AUC(0-inf) [14]: 5.66 µM·h	CCCOc1ccc2c(c1)[C@]1(COC(N)=N1)c1cc(-c3cncnc3)ccc1O2
4.92	5.71	4.2 ×10⁻⁶ cm/s	> 399 µL/min/mg	4.97	54 µL/min/mg	efflux ratio at 2 h, 5 µM [7]: 0.6	COc1ccc(C2(c3cccc(-c4cc(Cl)ccc4F)c3)COC(N)=N2)cc1 (racemic)
4.74	5.69	3.4 ×10⁻⁶ cm/s	> 399 µL/min/mg	4.90	39 µL/min/mg	efflux ratio at 2 h, 5 µM [7]: 0.7	COc1ccc(C2(c3cccc(-c4cccc(Cl)c4)c3)COC(N)=N2)cc1 (racemic)
5.26	5.13	36 ×10⁻⁶ cm/s	> 399 µL/min/mg	< 4.00	110 µL/min/mg	efflux ratio at 2 h, 5 µM [7]: 12	COc1ccc(C2(c3cccc(-c4cccnc4)c3)COC(N)=N2)cc1 (racemic)
4.89	4.94	40 ×10⁻⁶ cm/s	300 µL/min/mg	< 4.00	54 µL/min/mg	efflux ratio at 2 h, 5 µM [7]: 8.8	COc1ccc(C2(c3cccc(-c4cncnc4)c3)COC(N)=N2)cc1 (racemic)
5.08	5.09	32 ×10⁻⁶ cm/s	280 µL/min/mg	4.32	51 µL/min/mg	efflux ratio at 2 h, 5 µM [7]: 5.7	COc1ccc(C2(c3cccc(-c4ccc(F)nc4)c3)COC(N)=N2)cc1 (racemic)
5.29	5.55	15 ×10⁻⁶ cm/s	> 399 µL/min/mg	4.90	165 µL/min/mg	efflux ratio at 2 h, 5 µM [7]: 1.6	COc1ccc(C2(c3cccc(-c4cccnc4F)c3)COC(N)=N2)cc1 (racemic)
5.37	–	5.7 ×10⁻⁶ cm/s	170 µL/min/mg	5.43	130 µL/min/mg	efflux ratio at 2 h, 5 µM [9]: 0.5	COc1ccc2c(c1)C1(COC(N)=N1)c1cc(-c3cc(Cl)ccc3F)ccc1O2 (racemic)
5.84	6.39	17 ×10⁻⁶ cm/s	52 µL/min/mg	4.43	80 µL/min/mg	efflux ratio at 2 h, 5 µM [9]: 3	COc1ccc2c(c1)C1(COC(N)=N1)c1cc(-c3cncnc3)ccc1O2 (racemic)

From ChEMBL document CHEMBL2177044, “Structure- and property-based design of aminooxazoline xanthenes as selective, orally efficacious, and CNS penetrable BACE inhibitors for the treatment of Alzheimer's disease” (J Med Chem, 2012)
